According to patent US5854010A, “Bioassay for detecting 2,3,7,8-tetrachlorodibenzo-para-dioxin and TCDD-like compounds and novel recombinant cell line useful therefor” (priority 1997, dated 1998):

Legend:
H1L1.1 cells = experiment: Dose response of luciferase induction, 24 h (FIGS. 3-6, Table 3); type: cell-based, mouse; details: for Emax / EC50: Mus musculus; for Emax / Induction of luciferase activity: mono-ortho-PCBs, FIG. 4; for Emax: vs 1 nM TCDD, read-out: Luciferase induction as % of that observed with TCDD; for Maximal luciferase expression / Relative inducing potency versus TCDD: fused-ring PAHs, FIG. 6
Method: The graph of FIG. 3 illustrates the dose dependence of luciferase induction in the mouse H1L1.1 cells measured following […] of the cells to increasing concentrations of TCDD or other toxic compounds (which others are discussed in more detail below).
More particularly, the stable cell clones for the mouse H1L1.1 cells (about 90% confluent) were plated into six-well microplates (purchased from Corning) and incubated for 24 hours with the indicated concentration of the particular toxin solubilized in DMSO. Then, the cells were lysed with 100 μl of lysis buffer and luciferase activity was determined as described above. Values represent the mean ± the standard evaluation of at least triplicate determinations.
As set out in Table 3, the responsiveness and sensitivity of the mouse H1L1.1 cells was compared to the responsiveness and sensitivity of certain other published PCDH cell bioassay systems. The other systems were a recombinant HepG2 (101L) cell line that induces firefly luciferase (see, Postlind et al., supra), a recombinant Hepa1 (T13) cell line that induces PAP activity (see El-Fouly et al., supra), and a rat H4IIE cell line that induces EROD activity (see, Kennedy et al., supra). The ED50 values were calculated by probit analysis of the dose-response data.
As set out in the graphs of FIGS. 3-6, since one use of the stably transfected mouse H1L1.1 cell lines is for detection and relative quantitative analysis of TCDD and various dioxin-like compounds (i.e., AhR ligands), the ability of various compounds besides TCDD to induce luciferase activity in the mouse H1L1.1 cells was examined. The experiments performed to determine the dose-response curves for the toxins other than TCDD set out in the graphs of FIGS. 3-6 were performed in essentially the same manner as the experiments described above to determine the dose response curve of TCDD set out in the graph of FIG. 3.
Specifically, with respect to the data illustrated in the graph of FIG. 3, cells were incubated with increasing concentrations of test chemical and luciferase activity determined after 24 hours.
It should be noted that the low numerical values of luciferase activity from induction by various PCBs reported in FIGS. 4 and 5, compared to the values reported in the other figures, are not due to actual low levels of luciferase induction, but to the fact that the detection of luminescence in these experiments was performed using a different instrument from that used in the other experiments.
However, the relative magnitude of luciferase induction by the mono-ortho-PCBs (FIG. 4) and the AROCLORS (FIG. 5) was established by directly comparing the resulting activity to that produced by a maximally inducing dose of TCDD (1 nM solubilized in DMSO) measured in the same instrument.

guinea pig AhR = experiment: Competitive inhibition of TCDD binding to AhR
mouse H1L1.1 cells = experiment: Antagonism of TCDD luciferase induction by 2,2',5,5'-TCB (FIG. 7); type: cell-based
Method: (§1) The bar graph of FIG. 7 illustrates that 2,2',5,5'-TCB antagonizes induction of luciferase activity by TCDD in a species-specific manner, and thus, 2,2',5,5'-TCB is not a TCDD-like compound as defined herein. In particular, six-well plates containing the indicated cell lines were incubated with DMSO (control), with TCDD (5 nM), with 2,2',5,5'-TCB (25 μM), or with both TCDD (5 nM) and 2,2',5,5'-TCB (25 μM) for 24 hours. Luciferase activity in cell lysates was determined as described above. Values represent the mean ± the standard evaluation of at least triplicate determinations.

human HG2L1.1c3 cells = experiment: as above; type: cell-based; details: 24 h
Method: as §1

rat H4L1.1c4 cells = experiment: as above; type: cell-based; details: 24 h
Method: as §1

[1] = test system: guinea pig G16L1.1c8 cells; experiment: as above; type: cell-based; details: 24 h
Method: as §1

rat AhR = experiment: Competitive inhibition of TCDD binding to AhR
mouse AhR = experiment: Competitive inhibition of TCDD binding to AhR

Clc1cc2c(cc1Cl)Oc1c(Cl)c(Cl)cc(Cl)c1O2 [1,2,4,7,8-PCDD, 1,2,4,7,8-pentachlorodibenzo-p-dioxin]
Luciferase activation (H1L1.1 cells; up to 10 μM, 24 h, FIG. 3): no luciferase activation

Clc1ccc(Cl)c(-c2cc(Cl)ccc2Cl)c1 [2,2',5,5'-TCB, 2,2',5,5'-tetrachlorobiphenyl]
Competitive inhibition of TCDD binding (guinea pig AhR): but not to the guinea pig and human AhRs | Effect of 2,2',5,5'-TCB alone on luciferase activity (mouse H1L1.1 cells; 25 μM, 24 h): no significant effect | Luminescence response of H1L1.1 cells (mouse H1L1.1 cells; 2,2',5,5'-TCB alone, in words): will not cause the novel mouse H1L1.1 cell line to respond with luminescence | Reduction of TCDD luciferase induction (mouse H1L1.1 cells; TCB 25 μM + TCDD 5 nM, 24 h): 86% | Antagonism when added with TCDD (mouse H1L1.1 cells; in words): acts as an antagonist | Effect of 2,2',5,5'-TCB alone on luciferase activity (human HG2L1.1c3 cells; 25 μM): no significant effect | Effect of 2,2',5,5'-TCB on TCDD luciferase induction (human HG2L1.1c3 cells; TCB 25 μM + TCDD 5 nM): not affected | Effect of 2,2',5,5'-TCB alone on luciferase activity (rat H4L1.1c4 cells; 25 μM): no significant effect | Reduction of TCDD luciferase induction (rat H4L1.1c4 cells; TCB 25 μM + TCDD 5 nM): 47% | Effect of 2,2',5,5'-TCB alone on luciferase activity ([1]; 25 μM): no significant effect | Effect of 2,2',5,5'-TCB on TCDD luciferase induction ([1]; TCB 25 μM + TCDD 5 nM): not affected | Competitive inhibition of TCDD binding (rat AhR): competitively to inhibit TCDD binding | Competitive inhibition of TCDD binding (mouse AhR): competitively to inhibit TCDD binding

Clc1ccc(-c2cc(Cl)c(Cl)c(Cl)c2Cl)cc1Cl [2,3,3',4,4',5-HCB, 2,3,3',4,4',5-hexachlorobiphenyl]
Emax (H1L1.1 cells; 24 h): 20 to 30% | Induction of luciferase activity (H1L1.1 cells; 24 h): 10 fold

Clc1ccc(-c2cc(Cl)c(Cl)c(Cl)c2Cl)cc1 [2,3,4,4',5-PCB, 2,3,4,4',5-pentachlorobiphenyl]
Emax (H1L1.1 cells; 24 h): 20 to 30% | Induction of luciferase activity (H1L1.1 cells; 24 h): 10 fold

Clc1cc2oc3c(Cl)c(Cl)c(Cl)cc3c2cc1Cl [2,3,4,7,8-PCDF, 2,3,4,7,8-pentachlorodibenzofuran]
Level of luciferase induction relative to TCDD (H1L1.1 cells; 24 h, FIG. 3): comparable levels | EC50 (H1L1.1 cells; 24 h, FIG. 3): ~2 nM

Clc1cc2oc3cc(Cl)c(Cl)cc3c2cc1Cl [2,3,7,8-TCDF, 2,3,7,8-tetrachlorodibenzofuran]
Level of luciferase induction relative to TCDD (H1L1.1 cells; 24 h, FIG. 3): comparable levels | EC50 (H1L1.1 cells; 24 h, FIG. 3): ~0.05 nM

Clc1ccc(-c2cc(Cl)c(Cl)c(Cl)c2)cc1Cl [3,3',4,4',5-PCB, 3,3',4,4',5-pentachlorobiphenyl]
Level of luciferase induction relative to TCDD (H1L1.1 cells; 24 h, FIG. 3): comparable maximal levels | EC50 (H1L1.1 cells; 24 h, FIG. 3): 2 nM

Clc1ccc(-c2ccc(Cl)c(Cl)c2)cc1Cl [3,3',4,4'-TCB, 3,3',4,4'-tetrachlorobiphenyl]
Level of luciferase induction relative to TCDD (H1L1.1 cells; 24 h, FIG. 3): comparable maximal levels | EC50 (H1L1.1 cells; 24 h, FIG. 3): 100 nM

Cc1ccc2cc3c(ccc4ccccc43)c3c2c1CC3 [3-MC, 3-methylcholanthrene]
Maximal luciferase expression (H1L1.1 cells): maximal luciferase expression was not reached | Relative inducing potency versus TCDD (H1L1.1 cells): substantially less potent than TCDD

c1ccc2cc3c(ccc4ccccc43)cc2c1 [BA, benz[a]anthracene]
Maximal luciferase expression (H1L1.1 cells): maximal luciferase expression was not reached | Relative inducing potency versus TCDD (H1L1.1 cells): substantially less potent than TCDD

O=c1cc(-c2ccccc2)oc2ccc3ccccc3c12 [BNF, β-naphthoflavone]
Maximal luciferase expression (H1L1.1 cells): maximal luciferase expression was not reached | Relative inducing potency versus TCDD (H1L1.1 cells): substantially less potent than TCDD
